Data: US20240368181A1, “QUINOXALINE DERIVATIVES AND USES THEREOF” (Black Diamond Therapeutics, Inc., priority 2021, published 2024)
pIC50: −log10 of the molar value.

Assays:
Format in all cases: cell-based
[1] = system: RT-112 (FGFR3-Tacc3 fusion) cells; test: cell proliferation assay (CellTiterGlo), RT-112 cells; details: Homo sapiens, RT-112, RT112 cells, 72 hours
Excerpt: (§1) In some embodiments, the biological assay assess the ability of the compounds to inhibit cell proliferation.
(§2) In some embodiments, cells (e.g., SNU-16 (FGFR2-amplification) cells) may be suspended and dispensed in plates. In some embodiments, cells (e.g., UM-UC-14 (FGFR3-S249C) cells) may be suspended and dispensed in plates. In some embodiments, cells (e.g., DMS-114 (FGFR1 overexpression) cells) may by suspended and dispensed in plates. In some embodiments, cells (e.g., RT-112 (FGFR3-Tacc3 fusion) cells) may be suspended and dispensed in plates. In some embodiments, to determine the effect of the compounds of the present disclosure on cell proliferation, cells (e.g., SNU-16, UM-UC-14, DMS-114 and […] cells) may be incubated in the presence of vehicle control (e.g., DMSO) or a compound of the present disclosure at varying concentrations and the inhibition of cell growth may be determined by luminescent quantification (e.g., of intracellular ATP content using CellTiterGlo), according to the manufacturers protocol. In some embodiments, to determine the IC50 values, the vehicle-treated cells were normalized as viable cells and the growth was analyzed using a software (e.g., the CDD Vault software (Collaborative Drug Discovery, Burlingame, CA)).

[2] = system: DMS-114 (FGFR1 overexpression) cells; test: cell proliferation assay (CellTiterGlo), DMS-114 cells; details: Homo sapiens, DMS-114, 72 h
Excerpt: as §1, §2

[3] = system: UM-UC-14 (FGFR3-S249C) cells; test: cell proliferation assay (CellTiterGlo), UM-UC-14 cells; details: UMUC14, 72 h
Excerpt: as §1, §2

[4] = system: SNU-16 (FGFR2-amplification) cells; test: cell proliferation assay (CellTiterGlo), SNU-16 cells; details: Homo sapiens, 72 hours
Excerpt: as §1, §2

pIC50 [4]	SMILES	pIC50 [1]	pIC50 [2]	pIC50 [3]
7.00 to 7.70	Cc1nc2ccc(Oc3ccc4ncc(-c5cnn(CC6CCN(C(N)=O)CC6)c5)nc4c3Cl)cc2[nH]1 [Compound 354]	> 7.70	6.40 to 7.00	7.00 to 7.70
7.00 to 7.70	Cc1nc2ccc(Oc3ccc4ncc(-c5cnn(CC6C7COCC76)c5)nc4c3Cl)cc2[nH]1 (centres unmarked) [Compound 365]	7.00 to 7.70	≤ 6.40	7.00 to 7.70
7.00 to 7.70	CSC1CCC(Cn2cc(-c3cnc4ccc(Oc5ccc6nc(C)[nH]c6c5)c(Cl)c4n3)cn2)CC1 (centres unmarked) [Compound 371]	7.00 to 7.70	≤ 6.40	6.40 to 7.00
7.00 to 7.70	Cc1nc2cc(F)c(Oc3ccc4ncc(-c5cnn(CCO)c5)nc4c3Cl)cc2[nH]1 [Compound 247]	7.00 to 7.70	≤ 6.40	7.00 to 7.70
7.00 to 7.70	CCC(=O)N1CCC(CCn2cc(-c3cnc4ccc(Oc5ccc6nc(C)[nH]c6c5)c(Cl)c4n3)cn2)CC1 [Compound 300]	7.00 to 7.70	≤ 6.40	> 7.70
≤ 6.40	Clc1c(Oc2ccn3cncc3c2)ccc2ncc(-c3cnn(CC4CCNCC4)c3)nc12 [Compound 341]	≤ 6.40	≤ 6.40	≤ 6.40
7.00 to 7.70	Cc1nc2ccc(Oc3ccc4ncc(-c5cnn([C@H]6CCNC[C@@H]6F)c5)nc4c3Cl)cc2[nH]1 [Compound 369]	7.00 to 7.70	≤ 6.40	7.00 to 7.70
7.00 to 7.70	CCS(=O)(=O)N1CC(CC#N)(n2cc(-c3cnc4ccc(Oc5ccc6nc(C)[nH]c6c5)c(Cl)c4n3)cn2)C1 [Compound 374]	> 7.70	≤ 6.40	7.00 to 7.70
7.00 to 7.70	Cc1nc2ccc(Oc3ccc4ncc(-c5cnn(CC6CS(=O)(=O)C6)c5)nc4c3Cl)cc2[nH]1 [Compound 228]	7.00 to 7.70	≤ 6.40	7.00 to 7.70
7.00 to 7.70	CC(=O)/C=C/N1CC[C@H](n2cc(-c3cnc4ccc(Oc5ccc6nc(C)[nH]c6c5)c(Cl)c4n3)cn2)[C@@H](F)C1 [Compound 233]	7.00 to 7.70	≤ 6.40	7.00 to 7.70
> 7.70	Cc1nc2ccc(Oc3ccc4ncc(-c5cnn(CCC6CCN(C)CC6)c5)nc4c3Cl)cc2[nH]1 [Compound 305]	> 7.70	6.40 to 7.00	> 7.70
6.40 to 7.00	Cc1nc2ccc(Oc3ccc4ncc(-c5cnn(CC(=O)N6CCS(=O)(=O)CC6)c5)nc4c3Cl)cc2[nH]1 [Compound 270]	7.00 to 7.70	≤ 6.40	≤ 6.40
7.00 to 7.70	Cc1nc2ccc(Oc3ccc4ncc(-c5cnn(CC6CN(C)CCO6)c5)nc4c3Cl)cc2[nH]1 (centres unmarked) [Compound 271]	> 7.70	≤ 6.40	7.00 to 7.70
≤ 6.40	Cc1nc2ccc(Oc3ccc4ncc(-c5cnn(CC6(C)COC6)c5)nc4c3Cl)cc2[nH]1 [Compound 352]	≤ 6.40	≤ 6.40	≤ 6.40
7.00 to 7.70	Cc1nc2ccc(Oc3ccc4ncc(-c5cnn(CC(C)(C)C(N)=O)c5)nc4c3Cl)cc2[nH]1 [Compound 274]	7.00 to 7.70	≤ 6.40	7.00 to 7.70
7.00 to 7.70	Cc1nc2ccc(Oc3ccc4ncc(-c5cnn(CCC6C=CCO6)c5)nc4c3Cl)cc2[nH]1 (centres unmarked) [Compound 376]	7.00 to 7.70	≤ 6.40	7.00 to 7.70
7.00 to 7.70	Cc1nc2ccc(Oc3ccc4ncc(-c5cnn(C[C@@H]6CCN(C)C[C@H]6F)c5)nc4c3Cl)cc2[nH]1 [Compound 367]	> 7.70	6.40 to 7.00	7.00 to 7.70
7.00 to 7.70	Cc1nc2ccc(Oc3ccc4ncc(-c5cnn(CC(=O)N6CC[C@@H](F)C6)c5)nc4c3Cl)cc2[nH]1 [Compound 283]	7.00 to 7.70	≤ 6.40	7.00 to 7.70
7.00 to 7.70	Cc1nc2ccc(Oc3ccc4ncc(-c5cnn(C6CC7CC6CN7)c5)nc4c3Cl)cc2[nH]1 (centres unmarked) [Compound 353]	7.00 to 7.70	≤ 6.40	7.00 to 7.70
≤ 6.40	C=CS(=O)(=O)N1CCC(Cn2cc(-c3cnc4ccc(Oc5ccc6nc(C)[nH]c6c5)c(Cl)c4n3)cn2)CC1 [Compound 384]	≤ 6.40	≤ 6.40	≤ 6.40
7.00 to 7.70	Cc1nc2ccc(Oc3ccc4ncc(-c5cnn(CC6CC(F)(F)C6)c5)nc4c3Br)cc2[nH]1 [Compound 243]	7.00 to 7.70	≤ 6.40	7.00 to 7.70

Second part, the compound before the results:

SMILES	pIC50 [4]	pIC50 [1]	pIC50 [2]	pIC50 [3]
Cc1nc2ccc(Oc3ccc4ncc(-c5cnn(CC6CC(F)(F)C6)c5)nc4c3C3=CC(C)(C)OC3(C)C)c(F)c2[nH]1 [Compound 88]	7.00 to 7.70	7.00 to 7.70	6.40 to 7.00	7.00 to 7.70
Cc1nc2ccc(Oc3ccc4ncc(-c5cnn(CC6(N)CC6)c5)nc4c3Cl)cc2[nH]1 [Compound 93]	6.40 to 7.00	6.40 to 7.00	≤ 6.40	7.00 to 7.70
Cc1nc2ccc(Oc3ccc4ncc(-c5cnn(Cc6ncc7n6CCOC7)c5)nc4c3Cl)c(F)c2[nH]1 [Compound 145]	7.00 to 7.70	6.40 to 7.00	≤ 6.40	≤ 6.40
Cc1nc2ccc(Oc3ccc4ncc(-c5cnn(CCC(F)F)c5)nc4c3Cl)cc2[nH]1 [Compound 92]	6.40 to 7.00	6.40 to 7.00	≤ 6.40	6.40 to 7.00
Cc1nc2ccc(Oc3ccc4ncc(-c5cnn(C(C)(C)C(=O)O)c5)nc4c3Cl)c(F)c2[nH]1 [Compound 115]	≤ 6.40	≤ 6.40	≤ 6.40	≤ 6.40
Cc1nc2ccc(Oc3ccc4ncc(-c5cnn([C@@H](C)C6CC(F)(F)C6)c5)nc4c3Cl)c(F)c2[nH]1 [Compound 108]	> 7.70	7.00 to 7.70	6.40 to 7.00	7.00 to 7.70
Cc1nc2ccc(Oc3ccc4ncc(-c5cnn(C6CCC(F)(F)CC6)c5)nc4c3Cl)c(F)c2[nH]1 [Compound 153]	7.00 to 7.70	7.00 to 7.70	6.40 to 7.00	7.00 to 7.70
Cc1nc2ccc(Oc3ccc4ncc(-c5cnn(C(C)(C)C6CC(=O)C6)c5)nc4c3Cl)cc2[nH]1 [Compound 150]	7.00 to 7.70	7.00 to 7.70	≤ 6.40	7.00 to 7.70
Cc1nc2ccc(Oc3ccc4ncc(-c5cnn(CC6CCNS(=O)(=O)C6)c5)nc4c3Cl)cc2[nH]1 (centres unmarked) [Compound 192]	7.00 to 7.70	7.00 to 7.70	≤ 6.40	7.00 to 7.70
Cc1nc2ccc(Oc3ccc4ncc(-c5cnn(CC6CC(F)(F)C6)c5)nc4c3C3COC3)cc2[nH]1 [Compound 97]	7.00 to 7.70	6.40 to 7.00	≤ 6.40	6.40 to 7.00
Cc1nc2ccc(Oc3ccc4ncc(-c5cnn(CC6CC(F)(F)C6)c5)nc4c3C3CCCOC3)cc2[nH]1 (centres unmarked) [Compound 87]	≤ 6.40	≤ 6.40	≤ 6.40	≤ 6.40
Cc1nc2ccc(Oc3ccc4ncc(-c5cnn([C@H]6C[C@H](O)C6)c5)nc4c3Cl)c(F)c2[nH]1 [Compound 143]	6.40 to 7.00	6.40 to 7.00	≤ 6.40	≤ 6.40
Cc1nc2ccc(Oc3ccc4ncc(-c5cnn(Cc6nnc(C)o6)c5)nc4c3Cl)cc2[nH]1 [Compound 111]	7.00 to 7.70	7.00 to 7.70	≤ 6.40	7.00 to 7.70
Cc1nc2ccc(Oc3ccc4ncc(-c5cnn(CC(O)C(F)(F)F)c5)nc4c3Cl)c(F)c2[nH]1 (centres unmarked) [Compound 144]	7.00 to 7.70	6.40 to 7.00	≤ 6.40	≤ 6.40
Cc1nc2ccc(Oc3ccc4ncc(-c5cnn(CC6CC(F)(F)C6)c5)nc4c3C3=CCOC3)c(F)c2[nH]1 [Compound 89]	> 7.70	7.00 to 7.70	6.40 to 7.00	7.00 to 7.70
Cc1nc2ccc(Oc3ccc4ncc(-c5cnn(CC6CC(F)(F)C6)c5)nc4c3-n3ccnc3)cc2[nH]1 [Compound 69]	6.40 to 7.00	6.40 to 7.00	≤ 6.40	6.40 to 7.00
Cc1nc2ccc(Oc3ccc4ncc(-c5cnn([C@H]6C[C@H](N7C[C@H]8C[C@@H]7CO8)C6)c5)nc4c3Cl)cc2[nH]1 [Compound 206]	7.00 to 7.70	7.00 to 7.70	6.40 to 7.00	7.00 to 7.70
Cc1nc2ccc(Oc3ccc4ncc(-c5cnn(CC6CC(F)(F)C6)c5)nc4c3Cl)c(Cl)c2[nH]1 [Compound 136]	6.40 to 7.00	6.40 to 7.00	–	–
Cc1nc2ccc(Oc3ccc4ncc(-c5cnn(C[C@@H](C)O)c5)nc4c3Cl)cc2[nH]1 [Compound 132]	7.00 to 7.70	7.00 to 7.70	–	–
Cc1nc2ccc(Oc3ccc4ncc(-c5cnn(CC6CC(F)(F)C6)c5)nc4c3-n3c(C)ccc3C)cc2[nH]1 [Compound 133]	≤ 6.40	6.40 to 7.00	–	–
Cc1nc2ccc(Oc3ccc4ncc(-c5cnn(CC6CC(F)(F)C6)c5)nc4c3-n3ccnc3)c(F)c2[nH]1 [Compound 96]	7.00 to 7.70	7.00 to 7.70	6.40 to 7.00	–
